Mass density data for eight compounds are collected here from the NIST ThermoML archive (doi:10.1016/j.jct.2003.09.005).

Values joined by “and” are separate entries in the source; they are usually repeats but may differ in a detail not shown here. Equal values may be shown once. ± gives the expanded uncertainty stated by the source.

The mass density is mass per unit of volume.

For data set [1] the following is noted: 298.15 K; 101.33 kPa; Liquid.
Data set [2] can be described thus: xn = mol fraction of the nth substance listed. Conditions: 298.15 K, 101.33 kPa, Liquid, Vibrating tube method.

For the compound `C1CCOC1` [tetrahydrofuran], the mass density in data set [1] is on record as 882.01 ± 0.54 kg/m3.
As to `O=C1OCCO1` [ethylene carbonate] + COCCOC, in data set [2] (x2 = 0.4158), the mass density is 1099.62 ± 0.57 kg/m3 and 1099.78 ± 0.56 kg/m3 and 1100.01 ± 0.56 kg/m3.
For the compound `COCCOC` [1,2-dimethoxyethane], in data set [1], the mass density is listed as 861.43 ± 0.56 kg/m3.
On the same count and under the same terms, for `CCOC(C)=O` [ethyl acetate] the value was 894.51 ± 0.54 kg/m3; for `CC#N` [acetonitrile], 776.69 ± 0.62 kg/m3.
Regarding `O=C1OCCO1` [ethylene carbonate] + CCOC(C)=O, the mass density in data set [2] (x2 = 0.4577) is 1118.46 ± 0.58 kg/m3 [middle of 4 runs].
Turning to `O=C1OCCO1` [ethylene carbonate] + C1CCOC1, the mass density in data set [2] (x2 = 0.4631) was 1110.32 ± 0.57 kg/m3 and 1109.98 ± 0.57 kg/m3 and 1109.85 ± 0.57 kg/m3.
Turning to `O=C1OCCO1` [ethylene carbonate] + CC#N, the mass density in data set [2] (x2 = 0.5533) is 1070.54 ± 0.55 kg/m3 and 1071.16 ± 0.54 kg/m3.
